ChEMBL document CHEMBL1201862, “PubChem BioAssay data set” (2004)
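Tested at 5 concentrations; 48 h exposure; 96-well plates; endpoints linearly interpolated, else capped at highest concentration. Abbreviation: GI50, concentration required for 50% inhibition of growth.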 Active and inactive are the calls of the source. Rule as the data show it: active = GI50 up to about 1.1 µM and inactive = higher.

Experiments:
Assay in all cases: growth of human tumour cells (NCI), 48 h
SK-OV-3 = test system: SK-OV-3
Malme-3M = test system: Malme-3M
SW-620 = test system: SW-620
SN12C = test system: SN12C
COLO 205 = test system: COLO 205
HL-60 = test system: HL-60
UACC-257 = test system: UACC-257
SK-MEL-2 = test system: SK-MEL-2
SK-MEL-28 = test system: SK-MEL-28
MCF7 = test system: MCF7
786-0 = test system: 786-0
T47D = test system: T47D
A498 = test system: A498
MDA-N = test system: MDA-N
SF-295 = test system: SF-295
IGROV-1 = test system: IGROV-1
NCI-H23 = test system: NCI-H23
RPMI-8226 = test system: RPMI-8226
HT-29 = test system: HT-29
K562 = test system: K562
SK-MEL-5 = test system: SK-MEL-5
OVCAR-8 = test system: OVCAR-8
SNB-75 = test system: SNB-75
HCC 2998 = test system: HCC 2998
MDA-MB-435 = test system: MDA-MB-435
SF-268 = test system: SF-268
M14 = test system: M14
HCT-116 = test system: HCT-116
KM12 = test system: KM12
NCI-H522 = test system: NCI-H522
ACHN = test system: ACHN
OVCAR-5 = test system: OVCAR-5
HOP-62 = test system: HOP-62
UO-31 = test system: UO-31
UACC-62 = test system: UACC-62
MDA-MB-231 = test system: MDA-MB-231
A549 = test system: A549
U-251 = test system: U-251
LOX IMVI = test system: LOX IMVI
HCT-15 = test system: HCT-15
SNB-19 = test system: SNB-19
PC-3 = test system: PC-3
HOP-92 = test system: HOP-92
Hs-578T = test system: Hs-578T
RXF 393 = test system: RXF 393
NCI-H226 = test system: NCI-H226
MOLT-4 = test system: MOLT-4
CCRF-CEM = test system: CCRF-CEM
NCI-H460 = test system: NCI-H460
DU-145 = test system: DU-145
CAKI-1 = test system: CAKI-1
BT-549 = test system: BT-549
EKVX = test system: EKVX
SR = test system: SR
OVCAR-4 = test system: OVCAR-4
TK-10 = test system: TK-10
NCI/ADR-RES = test system: NCI/ADR-RES
SF-539 = test system: SF-539
OVCAR-3 = test system: OVCAR-3

Measured: GI50

CC1=NN=C(N)N/C1=C\C(Sc1ccc(Cl)cc1)c1ccc(Cl)cc1Cl (centres undefined)
10.9 µM: HCT-15
inactive: SK-OV-3 18.3 µM | Malme-3M 13.4 µM | SW-620 17.2 µM | SN12C 24.8 µM | COLO 205 18.9 µM | HL-60 3.74 µM | UACC-257 16.8 µM | SK-MEL-2 16.4 µM | SK-MEL-28 21.8 µM | MCF7 3.78 µM | 786-0 18.5 µM | T47D 14.2 µM | A498 19.2 µM | MDA-N 19.7 µM | SF-295 16.9 µM | IGROV-1 8.61 µM | NCI-H23 13.1 µM | RPMI-8226 14.1 µM | HT-29 3.59 µM | K562 1.28 µM | SK-MEL-5 14.8 µM | OVCAR-8 13.5 µM | SNB-75 13.9 µM | HCC 2998 4.67 µM | MDA-MB-435 18.1 µM | SF-268 12.6 µM | M14 13.6 µM | HCT-116 8.02 µM | KM12 6.41 µM | NCI-H522 3.79 µM | ACHN 14.2 µM | OVCAR-5 15.9 µM | HOP-62 23.8 µM | UO-31 11.2 µM | UACC-62 14.7 µM | MDA-MB-231 21.1 µM | A549 8.34 µM | U-251 14.2 µM | LOX IMVI 14.3 µM | SNB-19 12.4 µM | PC-3 11.6 µM | HOP-92 9.71 µM | Hs-578T 17.5 µM | RXF 393 16.3 µM | NCI-H226 15.1 µM | MOLT-4 7.29 µM | CCRF-CEM 2.33 µM | NCI-H460 8.77 µM | DU-145 19.3 µM | CAKI-1 25.4 µM | BT-549 20 µM | EKVX 13.2 µM | SR > 100 µM | OVCAR-4 17.1 µM | TK-10 17.5 µM | NCI/ADR-RES 17.6 µM

CCCCc1c2c(c(C)c3c1C(=O)OC3)Oc1ccccc1O2
inactive: SK-OV-3 1.57 µM | SN12C 1.85 µM | SK-MEL-28 > 63.2 µM | MCF7 1.63 µM | 786-0 1.5 µM | T47D 5.11 µM | A498 1.25 µM | NCI-H23 2.9 µM | RPMI-8226 1.25 µM | OVCAR-8 3.67 µM | SF-268 1.64 µM | M14 1.22 µM | ACHN 4.59 µM | OVCAR-5 > 27.5 µM | HOP-62 1.23 µM | UO-31 5.77 µM | MDA-MB-231 2.57 µM | A549 1.73 µM | LOX IMVI 2.25 µM | SNB-19 3.95 µM | HOP-92 10.2 µM | NCI-H226 2.8 µM | DU-145 2.51 µM | CAKI-1 5.74 µM | BT-549 6.46 µM | OVCAR-4 3.56 µM | TK-10 2.29 µM
0.708 µM: HCT-15
active: Malme-3M 0.596 µM | SW-620 1.02 µM | COLO 205 0.855 µM | HL-60 0.316 µM | UACC-257 0.428 µM | SK-MEL-2 0.541 µM | SF-539 0.608 µM | MDA-N 0.145 µM | SF-295 0.467 µM | IGROV-1 0.608 µM | K562 0.379 µM | SK-MEL-5 0.478 µM | SNB-75 0.562 µM | HCC 2998 0.646 µM | MDA-MB-435 0.173 µM | HCT-116 0.565 µM | KM12 0.815 µM | NCI-H522 0.217 µM | UACC-62 0.535 µM | U-251 0.57 µM | PC-3 0.442 µM | Hs-578T 0.628 µM | RXF 393 0.975 µM | MOLT-4 0.973 µM | CCRF-CEM 0.695 µM | NCI-H460 0.369 µM | OVCAR-3 0.274 µM | SR 0.186 µM | NCI/ADR-RES 0.382 µM
